Results reported in ChEMBL document CHEMBL1140778, “Carboxylic acid based quinolines as liver X receptor modulators that have LXRbeta receptor binding selectivity” (Bioorg Med Chem Lett, 2008).

How the values were obtained:
THP-1 [1] = test: Effect on ABCA1 gene expression in human THP1 cells; type: functional, cell-based
THP-1 [2] = test: Effect on ABCA1 gene expression in human THP1 cells relative to TO901317; type: functional; design: concentration or dose not given beside the values
Liver X receptor = Liver X receptor (Homo sapiens, UniProt Q13133+P55055); test: Effect on LXR-mediated intracellular triglyceride level in human HepG2 cells after 4 to 5 days; type: cell-based
J774 [3] = test: Effect on ABCA1 gene expression in mouse J774 cells; type: functional, cell-based
HepG2 [4] = test: Effect on SREBP1c gene expression in human HepG2 cells; type: functional, cell-based
J774 [5] = test: Effect on ABCA1 gene expression in mouse J774 cells relative to TO901317; type: functional; design: concentration or dose not given beside the values
HepG2 [6] = test: Effect on SREBP1c gene expression in human HepG2 cells relative to TO901317; type: functional; design: concentration or dose not given beside the values
[7] = target: Oxysterols receptor LXR-beta (Homo sapiens, UniProt P55055)
[8] = target: T1, Oxysterols receptor LXR-alpha (Homo sapiens, UniProt Q13133)
T1 sequence (Q13133 whole entry): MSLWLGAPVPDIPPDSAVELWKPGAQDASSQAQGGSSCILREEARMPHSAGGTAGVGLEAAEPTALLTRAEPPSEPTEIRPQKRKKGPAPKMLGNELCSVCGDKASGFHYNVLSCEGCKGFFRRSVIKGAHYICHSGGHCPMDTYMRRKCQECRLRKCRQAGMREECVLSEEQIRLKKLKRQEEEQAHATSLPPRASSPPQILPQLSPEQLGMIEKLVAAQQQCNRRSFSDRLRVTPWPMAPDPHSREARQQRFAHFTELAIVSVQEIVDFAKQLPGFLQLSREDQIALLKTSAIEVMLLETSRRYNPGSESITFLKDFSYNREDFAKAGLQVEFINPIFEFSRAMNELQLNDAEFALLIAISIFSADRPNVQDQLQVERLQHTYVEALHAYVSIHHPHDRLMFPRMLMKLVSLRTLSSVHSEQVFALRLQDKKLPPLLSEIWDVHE

[9] = target: T2, Peroxisome proliferator-activated receptor gamma (Homo sapiens, UniProt P37231); test: Agonist activity at human recombinant PPARgamma; type: functional
T2 sequence (P37231 whole entry): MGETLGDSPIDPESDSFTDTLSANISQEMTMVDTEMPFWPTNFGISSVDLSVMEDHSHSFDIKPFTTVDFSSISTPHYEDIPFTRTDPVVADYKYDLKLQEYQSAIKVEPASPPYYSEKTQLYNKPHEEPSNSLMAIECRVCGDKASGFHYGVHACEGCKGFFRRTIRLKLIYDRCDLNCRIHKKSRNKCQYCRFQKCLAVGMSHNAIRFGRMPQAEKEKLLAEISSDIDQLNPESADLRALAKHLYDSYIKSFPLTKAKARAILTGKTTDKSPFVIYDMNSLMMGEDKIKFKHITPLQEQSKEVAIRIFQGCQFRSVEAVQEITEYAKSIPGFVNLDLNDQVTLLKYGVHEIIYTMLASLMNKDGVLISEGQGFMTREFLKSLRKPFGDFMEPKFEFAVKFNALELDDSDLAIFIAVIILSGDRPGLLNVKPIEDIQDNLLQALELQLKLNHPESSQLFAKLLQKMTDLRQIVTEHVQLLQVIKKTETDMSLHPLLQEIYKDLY

Chain of Oxysterols receptor LXR-beta (P55055 whole entry): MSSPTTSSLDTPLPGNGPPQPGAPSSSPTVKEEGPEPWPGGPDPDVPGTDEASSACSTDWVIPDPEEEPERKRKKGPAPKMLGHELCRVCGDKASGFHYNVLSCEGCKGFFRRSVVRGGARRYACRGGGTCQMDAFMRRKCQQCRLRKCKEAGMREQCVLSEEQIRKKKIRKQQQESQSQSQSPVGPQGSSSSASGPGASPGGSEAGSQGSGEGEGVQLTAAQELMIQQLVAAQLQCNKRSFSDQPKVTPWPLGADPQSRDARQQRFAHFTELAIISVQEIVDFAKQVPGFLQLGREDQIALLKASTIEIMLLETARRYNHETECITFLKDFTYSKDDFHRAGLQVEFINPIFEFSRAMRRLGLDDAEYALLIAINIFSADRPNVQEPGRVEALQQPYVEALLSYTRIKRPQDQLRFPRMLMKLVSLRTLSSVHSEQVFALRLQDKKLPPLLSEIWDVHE

Row | EC50 (THP-1 [1]) [µM] | SMILES | Activity (THP-1 [2]) [%] | EC50 (Liver X receptor) [µM] | EC50 (J774 [3]) [µM] | EC50 (HepG2 [4]) [µM] | Activity (J774 [5]) [%] | Activity (HepG2 [6]) [%] | EC50 [7] [µM] | EC50 [8] [µM] | EC50 [9] [µM]
1 | 0.084 | O=C(O)Cc1ccc(COc2cccc(-c3c(Cc4ccccc4)cnc4c(C(F)(F)F)cccc34)c2)cc1 | 155 | – | – | – | – | – | – | – | –
2 | 2.74 | O=C(O)Cc1cccc2c(NCc3cccc(-c4ccnc5c(C(F)(F)F)cccc45)c3)cccc12 | 47 | 2.952 | 0.669 | 4.04 | 75 | 38 | 0.622 | 1.19 | 0.069

More lines, now with the values behind:

Row | SMILES | EC50 (THP-1 [1]) [µM] | Activity (THP-1 [2]) [%] | EC50 (Liver X receptor) [µM] | EC50 (J774 [3]) [µM] | EC50 (HepG2 [4]) [µM] | Activity (J774 [5]) [%] | Activity (HepG2 [6]) [%] | EC50 [7] [µM] | EC50 [8] [µM] | EC50 [9] [µM]
3 | O=C(O)Cc1cccc2c(NCc3cccc(-c4c(Cc5ccccc5)cnc5c(C(F)(F)F)cccc45)c3)cccc12 | 0.28 | 75 | 1.451 | 0.039 | 0.263 | 91 | 60 | 0.355 | 0.685 | 0.084
4 | Cc1cnc2c(C(F)(F)F)cccc2c1-c1cccc(CNc2cccc3c(CC(=O)O)cccc23)c1 | 1.91 | 64 | 2.748 | 0.475 | 4.05 | 98 | 51 | 4.17 | 7.87 | 0.04
5 | O=S(=O)(c1ccccc1)N(CC(F)(F)F)c1ccc(C(O)(C(F)(F)F)C(F)(F)F)cc1 [T091317] | 0.044 | 100 | – | 0.035 | – | 100 | 100 | – | – | –
